Laboratory results published in ChEMBL document CHEMBL1240439, “Synthesis and docking studies of novel benzopyran-2-ones with anticancer activity” (2010).
Active and inactive are the calls of the source.

Columns and labels:
Assay type in all cases: functional
HCC 2998 = experiment: Cytotoxicity against human HCC2998 cells assessed as cell growth at 10 uM after 48 hrs by sulforhodamine B assay
K562 = experiment: Cytotoxicity against human K562 cells assessed as cell growth at 10 uM after 48 hrs by sulforhodamine B assay
U-251 = experiment: Cytotoxicity against human U251 cells assessed as cell growth at 10 uM after 48 hrs by sulforhodamine B assay
NCI-H322M = experiment: Cytotoxicity against human NCI-H322M cells assessed as cell growth at 10 uM after 48 hrs by sulforhodamine B assay
HOP-62 = experiment: Cytotoxicity against human HOP62 cells assessed as cell growth at 10 uM after 48 hrs by sulforhodamine B assay
SNB-75 = experiment: Cytotoxicity against human SNB75 cells assessed as cell growth at 10 uM after 48 hrs by sulforhodamine B assay
SK-OV-3 = experiment: Cytotoxicity against human SKOV3 cells assessed as cell growth at 10 uM after 48 hrs by sulforhodamine B assay
MDA-MB-468 = experiment: Cytotoxicity against human MDA-MB-468 cells assessed as cell growth at 10 uM after 48 hrs by sulforhodamine B assay
HOP-92 = experiment: Cytotoxicity against human HOP92 cells assessed as cell growth at 10 uM after 48 hrs by sulforhodamine B assay
NCI-H522 = experiment: Cytotoxicity against human NCI-H522 cells assessed as cell growth at 10 uM after 48 hrs by sulforhodamine B assay
SF-539 = experiment: Cytotoxicity against human SF539 cells assessed as cell growth at 10 uM after 48 hrs by sulforhodamine B assay
SW-620 = experiment: Cytotoxicity against human SW620 cells assessed as cell growth at 10 uM after 48 hrs by sulforhodamine B assay
OVCAR-5 = experiment: Cytotoxicity against human OVCAR5 cells assessed as cell growth at 10 uM after 48 hrs by sulforhodamine B assay
SN12C = experiment: Cytotoxicity against human SN12C cells assessed as cell growth at 10 uM after 48 hrs by sulforhodamine B assay
EKVX = experiment: Cytotoxicity against human EKVX cells assessed as cell growth at 10 uM after 48 hrs by sulforhodamine B assay
SK-MEL-2 = experiment: Cytotoxicity against human SK-MEL-2 cells assessed as cell growth at 10 uM after 48 hrs by sulforhodamine B assay
PC-3 = experiment: Cytotoxicity against human PC3 cells assessed as cell growth at 10 uM after 48 hrs by sulforhodamine B assay
A549 = experiment: Cytotoxicity against human A549 cells assessed as cell growth at 10 uM after 48 hrs by sulforhodamine B assay
SF-268 = experiment: Cytotoxicity against human SF268 cells assessed as cell growth at 10 uM after 48 hrs by sulforhodamine B assay
OVCAR-4 = experiment: Cytotoxicity against human OVCAR4 cells assessed as cell growth at 10 uM after 48 hrs by sulforhodamine B assay
SF-295 = experiment: Cytotoxicity against human SF295 cells assessed as cell growth at 10 uM after 48 hrs by sulforhodamine B assay
Malme-3M = experiment: Cytotoxicity against human MALME-3M cells assessed as cell growth at 10 uM after 48 hrs by sulforhodamine B assay
MDA-MB-435 = experiment: Cytotoxicity against human MDA-MB-435 cells assessed as cell growth at 10 uM after 48 hrs by sulforhodamine B assay
A498 = experiment: Cytotoxicity against human A498 cells assessed as cell growth at 10 uM after 48 hrs by sulforhodamine B assay
M14 = experiment: Cytotoxicity against human M14 cells assessed as cell growth at 10 uM after 48 hrs by sulforhodamine B assay
HL-60(TB) = experiment: Cytotoxicity against human HL-60(TB) cells assessed as cell growth at 10 uM after 48 hrs by sulforhodamine B assay
LOX IMVI = experiment: Cytotoxicity against human LOXIMVI cells assessed as cell growth at 10 uM after 48 hrs by sulforhodamine B assay
NCI-H23 = experiment: Cytotoxicity against human NCI-H23 cells assessed as cell growth at 10 uM after 48 hrs by sulforhodamine B assay
MOLT-4 = experiment: Cytotoxicity against human MOLT4 cells assessed as cell growth at 10 uM after 48 hrs by sulforhodamine B assay
HCT-116 = experiment: Cytotoxicity against human HCT116 cells assessed as cell growth at 10 uM after 48 hrs by sulforhodamine B assay
T47D = experiment: Cytotoxicity against human T47D cells assessed as cell growth at 10 uM after 48 hrs by sulforhodamine B assay
HT-29 = experiment: Cytotoxicity against human HT-29 cells assessed as cell growth at 10 uM after 48 hrs by sulforhodamine B assay
BT-549 = experiment: Cytotoxicity against human BT549 cells assessed as cell growth at 10 uM after 48 hrs by sulforhodamine B assay
OVCAR-8 = experiment: Cytotoxicity against human OVCAR8 cells assessed as cell growth at 10 uM after 48 hrs by sulforhodamine B assay
COLO 205 = experiment: Cytotoxicity against human COLO205 cells assessed as cell growth at 10 uM after 48 hrs by sulforhodamine B assay
SR = experiment: Cytotoxicity against human SR cells assessed as cell growth at 10 uM after 48 hrs by sulforhodamine B assay
OVCAR-3 = experiment: Cytotoxicity against human OVCAR-3 cells assessed as cell growth at 10 uM after 48 hrs by sulforhodamine B assay
CCRF-CEM = experiment: Cytotoxicity against human CCRF-CEM cells assessed as cell growth at 10 uM after 48 hrs by sulforhodamine B assay
MCF7 = experiment: Cytotoxicity against human MCF7 cells assessed as cell growth at 10 uM after 48 hrs by sulforhodamine B assay
NCI-H460 = experiment: Cytotoxicity against human NCI-H460 cells assessed as cell growth at 10 uM after 48 hrs by sulforhodamine B assay
UACC-62 = experiment: Cytotoxicity against human UACC62 cells assessed as cell growth at 10 uM after 48 hrs by sulforhodamine B assay
SK-MEL-28 = experiment: Cytotoxicity against human SK-MEL-28 cells assessed as cell growth at 10 uM after 48 hrs by sulforhodamine B assay
DU-145 = experiment: Cytotoxicity against human DU145 cells assessed as cell growth at 10 uM after 48 hrs by sulforhodamine B assay
Hs-578T = experiment: Cytotoxicity against human Hs 578T cells assessed as cell growth at 10 uM after 48 hrs by sulforhodamine B assay
KM12 = experiment: Cytotoxicity against human KM12 cells assessed as cell growth at 10 uM after 48 hrs by sulforhodamine B assay
TK-10 = experiment: Cytotoxicity against human TK10 cells assessed as cell growth at 10 uM after 48 hrs by sulforhodamine B assay
MDA-MB-231 = experiment: Cytotoxicity against human MDA-MB-231 cells assessed as cell growth at 10 uM after 48 hrs by sulforhodamine B assay
ACHN = experiment: Cytotoxicity against human ACHN cells assessed as cell growth at 10 uM after 48 hrs by sulforhodamine B assay
SK-MEL-5 = experiment: Cytotoxicity against human SK-MEL-5 cells assessed as cell growth at 10 uM after 48 hrs by sulforhodamine B assay
HCT-15 = experiment: Cytotoxicity against human HCT15 cells assessed as cell growth at 10 uM after 48 hrs by sulforhodamine B assay
UO-31 = experiment: Cytotoxicity against human UO31 cells assessed as cell growth at 10 uM after 48 hrs by sulforhodamine B assay
786-0 = experiment: Cytotoxicity against human 786-0 cells assessed as cell growth at 10 uM after 48 hrs by sulforhodamine B assay
RPMI-8226 = experiment: Cytotoxicity against human RPMI8226 cells assessed as cell growth at 10 uM after 48 hrs by sulforhodamine B assay
NCI-H226 = experiment: Cytotoxicity against human NCI-H226 cells assessed as cell growth at 10 uM after 48 hrs by sulforhodamine B assay
IGROV-1 = experiment: Cytotoxicity against human IGROV1 cells assessed as cell growth at 10 uM after 48 hrs by sulforhodamine B assay
SNB-19 = experiment: Cytotoxicity against human SNB19 cells assessed as cell growth at 10 uM after 48 hrs by sulforhodamine B assay
RXF 393 = experiment: Cytotoxicity against human RXF393 cells assessed as cell growth at 10 uM after 48 hrs by sulforhodamine B assay
UACC-257 = experiment: Cytotoxicity against human UACC257 cells assessed as cell growth at 10 uM after 48 hrs by sulforhodamine B assay

Measured: Activity

Cc1cc(C)n(C(=O)COc2ccc3c(-c4ccccc4)cc(=O)oc3c2C)n1
inactive: HCC 2998 | K562 | U-251 | NCI-H322M | HOP-62 | SNB-75 | SK-OV-3 | MDA-MB-468 | HOP-92 | NCI-H522 | SF-539 | SW-620 | OVCAR-5 | SN12C | EKVX | SK-MEL-2 | PC-3 | A549 | SF-268 | OVCAR-4 | SF-295 | Malme-3M | MDA-MB-435 | A498 | M14 | HL-60(TB) | LOX IMVI | NCI-H23 | MOLT-4 | HCT-116 | T47D | HT-29 | BT-549 | OVCAR-8 | COLO 205 | SR | OVCAR-3 | CCRF-CEM | MCF7 | NCI-H460 | UACC-62 | SK-MEL-28 | DU-145 | Hs-578T | KM12 | TK-10 | MDA-MB-231 | ACHN | SK-MEL-5 | HCT-15 | UO-31 | 786-0 | RPMI-8226 | NCI-H226 | IGROV-1 | SNB-19 | RXF 393 | UACC-257

CCCc1cc(=O)oc2cc(OCc3nnc(S)o3)ccc12
inactive: HCC 2998 | K562 | U-251 | NCI-H322M | HOP-62 | SNB-75 | SK-OV-3 | MDA-MB-468 | HOP-92 | NCI-H522 | SF-539 | SW-620 | OVCAR-5 | SN12C | EKVX | SK-MEL-2 | PC-3 | A549 | SF-268 | OVCAR-4 | SF-295 | Malme-3M | MDA-MB-435 | A498 | M14 | HL-60(TB) | LOX IMVI | NCI-H23 | MOLT-4 | HCT-116 | T47D | HT-29 | BT-549 | OVCAR-8 | COLO 205 | SR | OVCAR-3 | CCRF-CEM | MCF7 | NCI-H460 | UACC-62 | SK-MEL-28 | DU-145 | Hs-578T | KM12 | TK-10 | MDA-MB-231 | ACHN | SK-MEL-5 | HCT-15 | UO-31 | 786-0 | RPMI-8226 | NCI-H226 | IGROV-1 | SNB-19 | RXF 393 | UACC-257
